Assay results: ChEMBL document CHEMBL4354802, “Peptide derivatives as inhibitors of NS2B-NS3 protease from Dengue, West Nile, and Zika flaviviruses” (Bioorg Med Chem, 2019)
Non-standard residues stand in square brackets, D forms with d. Residues, ends and D or L forms follow the SMILES beside them. ξ: configuration not given here. *: point of attachment. Trp(5-NO2) = N[C@@H](Cc1c[nH]c2ccc([N+](=O)[O-])cc12)C(=O)O; Gly(2-naphthyl) = N[C@H](C(=O)O)c1ccc2ccccc2c1; ξR = N=C(N)NCCCC(N)C(=O)O; 2Abz = Nc1ccccc1C(=O)O; PhAc = O=C(Cc1ccccc1)*

What was measured:
Nonstructural protein 3 [1] = biological target: T1, Nonstructural protein 3 (Zika virus, UniProt A0A024AXB9); assay: Inhibition of Zika virus unlinked NS2B-NS3 protease preincubated for 5 mins followed by benzoyl-nKRR-AMC addition and measured every 60 secs for 12 mins by fluorescence method
thrombin (prothrombin) = thrombin (prothrombin) (Homo sapiens, UniProt P00734); assay: Inhibition of human thrombin at 25 uM preincubated for 15 mins followed by Boc-Val-Pro-Arg-AMC addition and measured for 10 mins by continuous fluorimetric assay relative to control; conditions: human thrombin enzyme, probe Boc-Val-Pro-Arg-AMC
Genome polyprotein [2] = biological target: T2, Genome polyprotein (West Nile virus, UniProt P06935); assay: Inhibition of West Nile virus NS2B (47 residues)-NS3 (184 residues) protease expressed in Escherichia coli BL21 (DE3) preincubated for 15 mins followed by Benzoyl-Nle-KRR-AMC addition and measured after 30 mins by fluorescence method
Nonstructural protein 3 [3] = biological target: T1, Nonstructural protein 3; assay: Inhibition of N-terminal His6-SUMO tagged Zika virus Puerto Rico NS2B-NS3 unlinked protease expressed in Escherichia coli BL21 Codon Plus (DE3) cells preincubated for 10 mins followed by pyr-TGKR-AMC addition and measured every 5 secs for 2 mins by fluorometric enzyme assay
Nonstructural protein 3 [4] = biological target: T1, Nonstructural protein 3; assay: Inhibition of N-terminal His6-SUMO tagged Zika virus Puerto Rico NS2B-NS3 unlinked protease expressed in Escherichia coli BL21 Codon Plus (DE3) cells preincubated for 90 mins followed by pyr-TGKR-AMC addition and measured every 5 secs for 2 mins by fluorometric enzyme assay
Nonstructural protein 3 [5] = biological target: T1, Nonstructural protein 3; assay: Inhibition of N-terminal His6-SUMO tagged Zika virus Puerto Rico NS2B-NS3 linked protease expressed in Escherichia coli BL21 Codon Plus (DE3) cells preincubated for 10 mins followed by pyr-TGKR-AMC addition and measured every 5 secs for 2 mins by fluorometric enzyme assay
Genome polyprotein [6] = biological target: T2, Genome polyprotein; assay: Inhibition of West Nile virus NS2B-NS3 protease preincubated for 1 hr followed by Pyr-RTKR-AMC addition and measured after 30 mins by fluorescence method
Genome polyprotein [7] = biological target: T3, Genome polyprotein (dengue virus type 2, UniProt P29990); assay: Inhibition of Dengue virus serotype 2 NS2B-NS3 protease preincubated for 20 mins followed by Abz-RRRRSAG-nY-NH2 addition and measured for 60 mins by fluorescence method
Genome polyprotein [8] = assay: Inhibition of Dengue virus serotype 1 NS2B-NS3 protease preincubated for 20 mins followed by Abz-RRRRSAG-nY-NH2 addition and measured for 60 mins by fluorescence method; parameters: species or system dengue virus type 1
Target sequence in this assay (P29990 1346-1475 limits assumed): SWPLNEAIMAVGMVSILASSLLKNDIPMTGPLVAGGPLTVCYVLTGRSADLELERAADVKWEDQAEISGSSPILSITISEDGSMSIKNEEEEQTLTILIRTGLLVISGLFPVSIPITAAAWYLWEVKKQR
Target sequence in this assay (P29990 1476-2093 limits assumed): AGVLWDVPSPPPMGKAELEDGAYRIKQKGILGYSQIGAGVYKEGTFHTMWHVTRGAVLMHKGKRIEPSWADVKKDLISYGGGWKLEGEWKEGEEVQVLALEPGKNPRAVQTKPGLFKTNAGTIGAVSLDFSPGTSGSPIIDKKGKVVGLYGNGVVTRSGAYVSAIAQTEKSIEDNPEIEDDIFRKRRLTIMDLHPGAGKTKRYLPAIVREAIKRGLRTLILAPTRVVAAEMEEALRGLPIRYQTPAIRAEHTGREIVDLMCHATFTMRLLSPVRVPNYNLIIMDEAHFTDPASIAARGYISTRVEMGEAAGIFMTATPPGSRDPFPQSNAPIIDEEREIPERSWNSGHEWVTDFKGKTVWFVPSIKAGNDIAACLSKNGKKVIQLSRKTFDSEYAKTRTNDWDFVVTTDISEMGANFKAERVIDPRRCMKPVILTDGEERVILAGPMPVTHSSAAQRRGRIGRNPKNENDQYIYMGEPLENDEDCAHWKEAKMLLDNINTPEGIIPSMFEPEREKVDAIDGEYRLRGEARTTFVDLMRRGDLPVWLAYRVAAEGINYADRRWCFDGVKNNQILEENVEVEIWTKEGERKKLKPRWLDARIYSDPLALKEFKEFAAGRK

Nonstructural protein 3 [9] = biological target: T1, Nonstructural protein 3; assay: Inhibition of Zika virus IbH_30656 NS2B (45 to 96 residues)-NS3 (1 to 177 residues) protease expressed in Escherichia coli BL21/Rosetta (DE3) cells preincubated for 60 mins followed by Bz-nKRR-AMC addition and measured at 60 secs intervals over 10 mins by fluorescence method
Genome polyprotein [10] = biological target: T2, Genome polyprotein; assay: Inhibition of West Nile virus protease
Genome polyprotein [11] = biological target: T3, Genome polyprotein; assay: Inhibition of Dengue virus serotype 2 NS2B(40 residues)-NS3 (185 residues) protease preincubated for 30 mins followed by ABz-nKRR-AMC addition and measured after 30 mins by fluorescence method
Genome polyprotein [12] = biological target: T2, Genome polyprotein; assay: Inhibition of West Nile virus NS2B-NS3 protease preincubated for 10 mins followed by Np-KKR-pNA addition and measured every 5 secs for 2 mins by fluorescence method

T3 sequence (P29990 1346-1475 limits assumed): as the sequence (P29990 1346-1475 limits assumed) above
T3 sequence (P29990 1476-2093 limits assumed): as the sequence (P29990 1476-2093 limits assumed) above
T2 sequence (P06935 1371-1501 limits assumed): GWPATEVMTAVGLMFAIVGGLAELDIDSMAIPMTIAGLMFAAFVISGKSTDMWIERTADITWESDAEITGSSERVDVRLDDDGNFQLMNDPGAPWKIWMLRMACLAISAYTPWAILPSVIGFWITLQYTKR
T2 sequence (P06935 1502-2120 limits assumed): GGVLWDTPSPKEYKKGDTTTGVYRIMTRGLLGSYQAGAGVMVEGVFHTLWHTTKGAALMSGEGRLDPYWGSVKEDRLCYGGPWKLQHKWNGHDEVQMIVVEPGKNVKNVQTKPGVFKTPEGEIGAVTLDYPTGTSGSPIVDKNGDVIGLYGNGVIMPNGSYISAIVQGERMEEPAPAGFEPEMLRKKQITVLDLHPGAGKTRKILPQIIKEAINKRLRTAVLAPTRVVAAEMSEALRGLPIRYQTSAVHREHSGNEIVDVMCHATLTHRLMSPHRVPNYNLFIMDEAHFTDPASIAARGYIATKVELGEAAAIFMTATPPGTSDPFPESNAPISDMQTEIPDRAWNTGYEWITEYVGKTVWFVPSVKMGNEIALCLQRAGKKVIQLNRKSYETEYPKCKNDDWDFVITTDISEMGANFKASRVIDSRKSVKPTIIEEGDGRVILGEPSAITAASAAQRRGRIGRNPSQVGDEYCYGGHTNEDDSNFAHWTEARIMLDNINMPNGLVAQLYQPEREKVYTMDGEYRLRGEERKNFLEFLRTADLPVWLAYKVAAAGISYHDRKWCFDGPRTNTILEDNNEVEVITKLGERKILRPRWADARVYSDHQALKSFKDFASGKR
T1 sequence (A0A024AXB9 whole entry): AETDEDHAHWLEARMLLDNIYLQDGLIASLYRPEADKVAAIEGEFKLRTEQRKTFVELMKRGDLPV

Molecule `N=C(N)NCCC[C@H](NC(=O)[C@H](CCCCN)NC(=O)[C@H](CCCCN)NC(=O)Cc1ccccc1)C(=O)NCC(=O)NCC(N)=O` (PhAc-KKRGG-NH2) has an IC50 (Nonstructural protein 3 [1]) of 1200 nM and a Ki (Nonstructural protein 3 [1]) of 470 nM.

Work on `CCCC[C@H](NC(=O)[C@H](CCCCN)NC(=O)[C@H](CCCNC(=N)N)NC(=O)c1ccc(/C=C(\C#N)C(=O)NC2CC2)cc1)C(N)=O` yielded an inhibition at 10 min, 25 µM (thrombin (prothrombin)) of 13.4%.

With `N=C(N)NCCCC(C=O)NC(=O)[C@H](CCCCN)NC(=O)c1ncc[nH]1` (stereo not given in full) the Ki (Genome polyprotein [2]) was 120 nM.

Molecule `N=C(N)NCCC[C@H](NC(=O)c1nccs1)C(=O)N[C@@H](CCCCN)C(=O)N[C@H](C(N)=O)c1ccc(OCc2ccc(C(F)(F)F)cc2)cc1` has an IC50 (Nonstructural protein 3 [3]) of 1060 nM, an IC50 (Nonstructural protein 3 [4]) of 1350 nM and an IC50 (Nonstructural protein 3 [5]) of 1040 nM.

Molecule `CC(=O)N[C@@H](CCCCN)C(=O)N[C@@H](CCCCN)C(=O)NCCCCNC(=N)N` has an IC50 (Genome polyprotein [6]) of 18700 nM and a Ki (Genome polyprotein [6]) of 4900 nM.

Molecule `N=C(N)NCCC[C@H](NC(=O)[C@H](CCCNC(=N)N)NC(=O)[C@H](CCCNC(=N)N)NC(=O)[C@@H](N)CCCNC(=N)N)C(=O)N[C@@H](Cc1cnc[nH]1)C(=O)N[C@@H](Cc1c[nH]c2ccccc12)C(=O)N[C@@H](CS)C(=O)N[C@@H](Cc1c[nH]c2ccccc12)C(N)=O` (H-RRRRHWCW-NH2) has a Ki (Genome polyprotein [7]) of 300 nM and a Ki (Genome polyprotein [8]) of 400 nM.

Molecule `N=C(N)NCCC[C@H](NC(=O)Cc1ccc(CNC(=N)N)cc1)C(=O)N[C@@H](CCCNC(=N)N)C(=O)N[C@@H](CCCNC(=N)N)C(=O)NCc1ccc(C(=N)N)cc1` has an IC50 (Nonstructural protein 3 [1]) of 1100 nM and a Ki (Nonstructural protein 3 [1]) of 430 nM.

In the case of `CC(C)C[C@H](NC(=O)[C@H](Cc1cnc[nH]1)NC(=O)[C@H](CCCNC(=N)N)NC(=O)[C@H](CCCNC(=N)N)NC(=O)[C@H](CCCNC(=N)N)NC(=O)[C@@H](N)CCCNC(=N)N)C(=O)N[C@@H](CS)C(=O)N[C@@H](Cc1c[nH]c2ccccc12)C(N)=O` (H-RRRRHLCW-NH2), the Ki (Genome polyprotein [7]) is reported as 400 nM and the Ki (Genome polyprotein [8]) is reported as 300 nM.

With `CC(C)C[C@H](NC(=O)[C@H](Cc1cnc[nH]1)NC(=O)[C@H](CCCNC(=N)N)NC(=O)[C@H](CCCNC(=N)N)NC(=O)[C@H](CCCNC(=N)N)NC(=O)[C@H](CCCNC(=N)N)NC(=O)c1ccccc1N)C(=O)N[C@@H](CS)C(=O)N[C@@H](Cc1c[nH]c2ccc([N+](=O)[O-])cc12)C(N)=O` (H-[2Abz]RRRRHLC[Trp(5-NO2)]-NH2) the Ki (Genome polyprotein [7]) was 1100 nM and the Ki (Genome polyprotein [8]) was 300 nM.

Work on `N=C(N)NCCC[C@H](NC(=O)[C@H](CCCCN)NC(=O)[C@H](CCCCN)NC(=O)Cc1ccc(CNC(=N)N)cc1)C(N)=O` yielded an IC50 (Nonstructural protein 3 [1]) of 1600 nM and a Ki (Nonstructural protein 3 [1]) of 600 nM.

`[H]/N=C(\N)NCCC[C@@H](C=O)NC(=O)[C@H](CCCCN)NC(C)=O` gave an IC50 (Nonstructural protein 3 [9]) of 280 nM.

Molecule `N=C(N)NCCC[C@@H](C=O)NC(=O)[C@H](CCCCN)NC(=O)[C@H](CCCCN)NC(=O)Cc1ccc(-c2ccccc2)cc1` has an IC50 (Genome polyprotein [10]) of 56 nM and an IC50 (Genome polyprotein [11]) of 12200 nM.

Work on `CC(=O)N[C@@H](CCCNC(=N)N)C(=O)N[C@@H](CCCNC(=N)N)C(=O)N[C@@H](CCCNC(=N)N)C(=O)N[C@@H](CCCNC(=N)N)C(=O)N[C@@H](Cc1cnc[nH]1)C(=O)N[C@@H](Cc1c[nH]c2ccccc12)C(=O)N[C@@H](CS)C(=O)N[C@@H](Cc1c[nH]c2ccccc12)C(N)=O` (Ac-RRRRHWCW-NH2) yielded a Ki (Genome polyprotein [7]) of 300 nM and a Ki (Genome polyprotein [8]) of 400 nM.

`N=C(N)NCCCC(NC(=O)[C@H](CCCCN)NC(=O)[C@H](CCCCN)NC(=O)[C@@H](NC(=O)[C@H](Cc1c[nH]cn1)NC(=O)CNC(=O)CN)c1ccc2ccccc2c1)C(N)=O` (stereo not given in full) (H-GGH[Gly(2-naphthyl)]KK[ξR]-NH2) showed a Ki (Genome polyprotein [12]) of 8000 nM.
